Assay results taken from ChEMBL document CHEMBL1275241, “Novel variants of the qnrB gene, qnrB22 and qnrB23, in Citrobacter werkmanii and Citrobacter freundii” (2010).
Converted amounts (≈) assume the structure as drawn.

Tests used:
Assay type in all cases: functional
[1] = test system: Citrobacter werkmanii; test: Antimicrobial activity against Citrobacter werkmanii PS012 expressing PMQR determinant qnrB22 gene by Etest
[2] = test system: Citrobacter freundii; test: Antimicrobial activity against Citrobacter freundii S008 expressing PMQR determinant qnrB23 gene by Etest
[3] = test system: Escherichia coli; test: Antimicrobial activity against […] Escherichia coli DH5alpha TrfS008 harboring PMQR determinant qnrB23 by Etest
[4] = test system: Escherichia coli; test: Antimicrobial activity against azide-resistant Escherichia coli J53 TrcS008 harboring PMQR determinant qnrB23 by Etest
[5] = test system: Escherichia coli; test: Antimicrobial activity against azide-resistant Escherichia coli J53 by Etest
[6] = test system: Escherichia coli; test: Antimicrobial activity against […] Escherichia coli DH5alpha TrfPS012 harboring PMQR determinant qnrB22 by Etest
[7] = test system: Escherichia coli; test: Antimicrobial activity against […] Escherichia coli DH5alpha by Etest
[8] = test system: Escherichia coli; test: Antimicrobial activity against azide-resistant Escherichia coli J53 TrcPS012 harboring PMQR determinant qnrB22 by Etest

SMILES	MIC [1] [µg/mL]	MIC [2] [µg/mL]	MIC [3] [µg/mL]	MIC [4] [µg/mL]	MIC [5] [µg/mL]	MIC [6] [µg/mL]	MIC [7] [µg/mL]	MIC [8] [µg/mL]
O=C(O)c1cn(C2CC2)c2cc(N3CCNCC3)c(F)cc2c1=O [CIPROFLOXACIN]	0.25 (≈ 0.754 µM)	2 (≈ 6.04 µM)	0.064 (≈ 0.193 µM)	–	–	–	–	–
C[C@H]1COc2c(N3CCN(C)CC3)c(F)cc3c(=O)c(C(=O)O)cn1c23.C[C@H]1COc2c(N3CCN(C)CC3)c(F)cc3c(=O)c(C(=O)O)cn1c23.O [LEVOFLOXACIN]	0.5	3	0.094	3	0.023	0.004	< 0.002	–
CCn1cc(C(=O)O)c(=O)c2ccc(C)nc21 [NALIDIXIC ACID]	32 (≈ 138 µM)	> 256	16 (≈ 68.9 µM)	> 256	3 (≈ 12.9 µM)	4 (≈ 17.2 µM)	2 (≈ 8.61 µM)	16 (≈ 68.9 µM)
CCn1cc(C(=O)O)c(=O)c2cc(F)c(N3CCNCC3)cc21 [NORFLOXACIN]	0.5 (≈ 1.57 µM)	8 (≈ 25.1 µM)	0.25 (≈ 0.783 µM)	8 (≈ 25.1 µM)	0.064 (≈ 0.2 µM)	0.064 (≈ 0.2 µM)	0.032 (≈ 0.1 µM)	0.25 (≈ 0.783 µM)
CC1COc2c(N3CCN(C)CC3)c(F)cc3c(=O)c(C(=O)O)cn1c23 (stereo not drawn) [OFLOXACIN]	1 (≈ 2.77 µM)	8 (≈ 22.1 µM)	0.25 (≈ 0.692 µM)	8 (≈ 22.1 µM)	0.064 (≈ 0.177 µM)	0.064 (≈ 0.177 µM)	0.023 (≈ 0.0636 µM)	–
